{"source": "paper PMC5218480", "about": "(PLoS ONE, 2017)", "test_system": "MV-4-11 cells", "assay": "Gene expression microarray analysis (Affymetrix PrimeView) and GSEA", "assay_type": "cell-based, human", "design": "RFU PODN (11730768_x_at) / Fold change /veh PODN (11730768_x_at) / RFU LINC00158 (11744669_a_at) / Fold change /veh LINC00158 (11744669_a_at) / RFU DUSP10 (11751237_a_at) / Fold change /veh DUSP10 (11751237_a_at) / RFU ID3 (11757404_x_at) / Fold change /veh ID3 (11757404_x_at) / RFU PLEKHG5 (11737974_s_at) / Fold change /veh PLEKHG5 (11737974_s_at) / RFU LRRC4B (11730491_at) / Fold change /veh LRRC4B (11730491_at) / RFU GIMAP4 (11747438_a_at) / Fold change /veh GIMAP4 (11747438_a_at) / RFU KRT8 (11758183_x_at) / Fold change /veh KRT8 (11758183_x_at) / RFU CNN1 (11734310_a_at) / Fold change /veh CNN1 (11734310_a_at) / RFU VPS37D (11726825_at) / Fold change /veh VPS37D (11726825_at) / RFU C10orf10 (11716522_x_at) / Fold change /veh C10orf10 (11716522_x_at) / RFU KIR2DL2 /// KIR2DL4 /// KIR2DL5A /// KIR2DL5B /// KIR2DS1 /// KIR2DS2 /// KIR2DS3 /// KIR2DS4 /// KIR3DL3 /// KIR3DL3 /// KIR3DS1 (11738374_at) / Fold change /veh KIR2DL2 /// KIR2DL4 /// KIR2DL5A /// KIR2DL5B /// KIR2DS1 /// KIR2DS2 /// KIR2DS3 /// KIR2DS4 /// KIR3DL3 /// KIR3DL3 /// KIR3DS1 (11738374_at) / RFU C1QL1 (11718748_at) / Fold change /veh C1QL1 (11718748_at) / RFU TMPRSS4 (11747572_a_at) / Fold change /veh TMPRSS4 (11747572_a_at) / RFU HAMP (11756126_x_at) / Fold change /veh HAMP (11756126_x_at) / RFU RNFT2 (11725882_a_at) / Fold change /veh RNFT2 (11725882_a_at) / RFU NR4A2 (11747474_a_at) / Fold change /veh NR4A2 (11747474_a_at) / RFU ABCC12 (11746883_a_at) / Fold change /veh ABCC12 (11746883_a_at) / RFU TMEM136 (11760407_x_at) / Fold change /veh TMEM136 (11760407_x_at) / RFU CLDN22 /// WWC2 (11732394_at) / Fold change /veh CLDN22 /// WWC2 (11732394_at) / RFU HLA-DPB1 (11760878_x_at) / Fold change /veh HLA-DPB1 (11760878_x_at) / RFU SPINT1 (11716480_a_at) / Fold change /veh SPINT1 (11716480_a_at) / RFU GAP43 (11754022_s_at) / Fold change /veh GAP43 (11754022_s_at) / RFU A4GNT (11735810_at) / Fold change /veh A4GNT (11735810_at) / RFU PRB3 (11715151_x_at) / Fold change /veh PRB3 (11715151_x_at) / RFU TUBB4B (11761932_at) / Fold change /veh TUBB4B (11761932_at) / RFU CAPN14 (11732068_a_at) / Fold change /veh CAPN14 (11732068_a_at) / RFU TMCC2 (11721928_a_at) / Fold change /veh TMCC2 (11721928_a_at) / RFU IRGQ (11745062_a_at) / Fold change /veh IRGQ (11745062_a_at) / RFU FAM174B (11720279_a_at) / Fold change /veh FAM174B (11720279_a_at) / RFU TMPRSS4 (11748680_a_at) / Fold change /veh TMPRSS4 (11748680_a_at) / RFU FAM212B (11763350_a_at) / Fold change /veh FAM212B (11763350_a_at) / RFU PLEKHG5 (11743358_a_at) / Fold change /veh PLEKHG5 (11743358_a_at) / RFU ZSCAN30 (11745921_a_at) / Fold change /veh ZSCAN30 (11745921_a_at) / RFU CMKLR1 (11741424_a_at) / Fold change /veh CMKLR1 (11741424_a_at) / RFU LOC101060620 /// MAPK8IP1 (11723275_at) / Fold change /veh LOC101060620 /// MAPK8IP1 (11723275_at) / RFU SPTSSB (11747773_x_at) / Fold change /veh SPTSSB (11747773_x_at) / RFU PRSS12 (11739890_at) / Fold change /veh PRSS12 (11739890_at) / RFU BIN1 (11741810_x_at) / Fold change /veh BIN1 (11741810_x_at) / RFU WNT11 (11732464_a_at) / Fold change /veh WNT11 (11732464_a_at) / RFU C10orf10 (11716521_a_at) / Fold change /veh C10orf10 (11716521_a_at) / RFU C5orf56 (11738089_at) / Fold change /veh C5orf56 (11738089_at) / RFU CYB561 (11721691_x_at) / Fold change /veh CYB561 (11721691_x_at) / RFU ANKRD19P (11752326_a_at) / Fold change /veh ANKRD19P (11752326_a_at) / RFU OR2T12 /// OR2T33 /// OR2T8 (11738714_s_at) / Fold change /veh OR2T12 /// OR2T33 /// OR2T8 (11738714_s_at) / RFU VCAN (11748164_a_at) / Fold change /veh VCAN (11748164_a_at) / RFU JSRP1 (11732532_at) / Fold change /veh JSRP1 (11732532_at) / RFU KRTAP10-11 (11738290_x_at) / Fold change /veh KRTAP10-11 (11738290_x_at) / RFU MYO3A (11730013_a_at) / Fold change /veh MYO3A (11730013_a_at) / RFU EBF3 (11725865_a_at) / Fold change /veh EBF3 (11725865_a_at) / RFU CAMK2N1 (11719241_x_at) / Fold change /veh CAMK2N1 (11719241_x_at) / RFU C5orf56 (11738088_a_at) / Fold change /veh C5orf56 (11738088_a_at) / RFU OLFML3 (11715873_a_at) / Fold change /veh OLFML3 (11715873_a_at) / RFU LOC100653217 /// NTM (11731650_a_at) / Fold change /veh LOC100653217 /// NTM (11731650_a_at) / RFU MAPK11 (11762145_a_at) / Fold change /veh MAPK11 (11762145_a_at) / RFU FIZ1 (11724087_x_at) / Fold change /veh FIZ1 (11724087_x_at) / RFU OASL (11726364_x_at) / Fold change /veh OASL (11726364_x_at) / RFU SOX15 (11748057_x_at) / Fold change /veh SOX15 (11748057_x_at) / RFU CD79A (11719716_a_at) / Fold change /veh CD79A (11719716_a_at) / RFU HIST1H1D (11736915_at) / Fold change /veh HIST1H1D (11736915_at) / RFU CASKIN2 (11723855_a_at) / Fold change /veh CASKIN2 (11723855_a_at) / RFU LOC730098 (11760151_x_at) / Fold change /veh LOC730098 (11760151_x_at) / RFU OR4N2 (11742367_at) / Fold change /veh OR4N2 (11742367_at) / RFU PRRT2 (11749266_a_at) / Fold change /veh PRRT2 (11749266_a_at) / RFU SNX32 (11753110_a_at) / Fold change /veh SNX32 (11753110_a_at) / RFU CDHR5 (11726645_a_at) / Fold change /veh CDHR5 (11726645_a_at) / RFU RCAN1 (11760418_a_at) / Fold change /veh RCAN1 (11760418_a_at) / RFU FAM167A (11723789_a_at) / Fold change /veh FAM167A (11723789_a_at) / RFU FAM26E (11764081_at) / Fold change /veh FAM26E (11764081_at) / RFU ISYNA1 (11749810_s_at) / Fold change /veh ISYNA1 (11749810_s_at) / RFU ACY1 (11761880_at) / Fold change /veh ACY1 (11761880_at) / RFU 11764098_at / Fold change /veh 11764098_at / RFU SAMD14 (11745864_x_at) / Fold change /veh SAMD14 (11745864_x_at) / RFU NPB (11741838_a_at) / Fold change /veh NPB (11741838_a_at) / RFU TMPRSS6 (11731388_a_at) / Fold change /veh TMPRSS6 (11731388_a_at) / RFU KRTAP10-2 (11738614_at) / Fold change /veh KRTAP10-2 (11738614_at) / RFU ARHGAP8 /// PRR5-ARHGAP8 (11727945_x_at) / Fold change /veh ARHGAP8 /// PRR5-ARHGAP8 (11727945_x_at) / RFU KRTAP5-7 /// NADSYN1 (11734609_at) / Fold change /veh KRTAP5-7 /// NADSYN1 (11734609_at) / RFU RASL12 (11751679_a_at) / Fold change /veh RASL12 (11751679_a_at) / RFU CDKN2B (11736163_a_at) / Fold change /veh CDKN2B (11736163_a_at) / RFU PRF1 (11729649_at) / Fold change /veh PRF1 (11729649_at) / RFU, ZNF638 /// ZNF638-IT1 / Fold change vs veh, ZNF638 /// ZNF638-IT1 / RFU, PANK3 / Fold change vs veh, PANK3 / RFU, SH3YL1 / Fold change vs veh, SH3YL1 / RFU, ZEB2 / Fold change vs veh, ZEB2 / RFU, NRIP1 / Fold change vs veh, NRIP1 / RFU, PTTG1IP / Fold change vs veh, PTTG1IP / RFU, CAPN2 / Fold change vs veh, CAPN2 / RFU, MED14 / Fold change vs veh, MED14 / RFU, SNORA58 / Fold change vs veh, SNORA58 / RFU, C1orf63 / Fold change vs veh, C1orf63 / RFU, LRRFIP1 / Fold change vs veh, LRRFIP1 / RFU, NDUFAF7 / Fold change vs veh, NDUFAF7 / RFU, SLC12A2 / Fold change vs veh, SLC12A2 / RFU, IBTK / Fold change vs veh, IBTK / RFU, ESF1 / Fold change vs veh, ESF1 / Fold change vs veh, TMEM50B / RFU, TAOK1 / Fold change vs veh, TAOK1 / RFU, ACBD3 / Fold change vs veh, ACBD3 / RFU, TMA16 / Fold change vs veh, TMA16 / RFU, RWDD3 / Fold change vs veh, RWDD3 / RFU, BCAT1 / Fold change vs veh, BCAT1 / RFU, EDEM3 / Fold change vs veh, EDEM3 / RFU, TMEM33 / Fold change vs veh, TMEM33 / RFU, WDR75 / Fold change vs veh, WDR75 / RFU, AHCTF1 / Fold change vs veh, AHCTF1 / RFU, TFRC / Fold change vs veh, TFRC / RFU, ZDHHC17 / Fold change vs veh, ZDHHC17 / RFU, NOM1 / Fold change vs veh, NOM1 / RFU, ARL8B / Fold change vs veh, ARL8B / RFU, ZBTB11 / Fold change vs veh, ZBTB11 / RFU, TAMM41 / Fold change vs veh, TAMM41 / RFU, KIAA1704 /// LOC100996395 / Fold change vs veh, KIAA1704 /// LOC100996395 / RFU, ING1 / Fold change vs veh, ING1 / RFU, TRMT61B / Fold change vs veh, TRMT61B / RFU, FUBP3 / Fold change vs veh, FUBP3 / RFU, TP53 / Fold change vs veh, TP53 / RFU, TNKS2 / Fold change vs veh, TNKS2 / RFU, ZFP14 / Fold change vs veh, ZFP14 / RFU, ACTR2 / Fold change vs veh, ACTR2 / RFU, PPP3R1 / Fold change vs veh, PPP3R1 / RFU, PIK3R1 / Fold change vs veh, PIK3R1 / RFU, HNRNPA1 / Fold change vs veh, HNRNPA1 / RFU, RNF170 / Fold change vs veh, RNF170 / RFU, ZNF28 / Fold change vs veh, ZNF28 / RFU, RNGTT / Fold change vs veh, RNGTT / RFU, OGT / Fold change vs veh, OGT / RFU, BRD1 / Fold change vs veh, BRD1 / RFU, MARS / Fold change vs veh, MARS / RFU, ZNF655 / Fold change vs veh, ZNF655 / RFU, FAHD1 / Fold change vs veh, FAHD1 / RFU, BDP1 / Fold change vs veh, BDP1 / RFU, LRRCC1 / Fold change vs veh, LRRCC1 / RFU, ARID1A / Fold change vs veh, ARID1A / RFU, ZNF146 / Fold change vs veh, ZNF146 / RFU, ZNF330 / Fold change vs veh, ZNF330 / RFU, GPN3 / Fold change vs veh, GPN3 / RFU, C9orf123 / Fold change vs veh, C9orf123 / RFU, N4BP2L2 / Fold change vs veh, N4BP2L2 / RFU, ARFIP1 / Fold change vs veh, ARFIP1 / RFU, FAM179B / Fold change vs veh, FAM179B / RFU, BCL10 / Fold change vs veh, BCL10 / RFU, UHRF1BP1L / Fold change vs veh, UHRF1BP1L / RFU, BET1 / Fold change vs veh, BET1 / RFU, CNOT2 / Fold change vs veh, CNOT2 / RFU, ZNF268 / Fold change vs veh, ZNF268 / Fold change vs veh, ZNF507 / RFU, DGCR2 / Fold change vs veh, DGCR2 / RFU, WDSUB1 / Fold change vs veh, WDSUB1 / Fold change vs veh, HSP90B1 /// MIR3652 / RFU, ADSS / Fold change vs veh, ADSS / RFU, GK / Fold change vs veh, GK / RFU, ZNF148 / Fold change vs veh, ZNF148 / RFU, TAF9 / Fold change vs veh, TAF9 / RFU, SLC1A5 / Fold change vs veh, SLC1A5 / RFU, SLMO2 / Fold change vs veh, SLMO2 / RFU, ABCC4 / Fold change vs veh, ABCC4 / RFU, LOC101060439 /// RAP1B / Fold change vs veh, LOC101060439 /// RAP1B / RFU, RFX7 / Fold change vs veh, RFX7 / RFU, GTPBP10 / Fold change vs veh, GTPBP10 / RFU, CNEP1R1 / Fold change vs veh, CNEP1R1 / RFU, BIVM-ERCC5 /// ERCC5 / Fold change vs veh, BIVM-ERCC5 /// ERCC5 / RFU, ILF3 / Fold change vs veh, ILF3 / RFU 11762660_at / Fold change /veh 11762660_at / RFU VCAN (11757783_s_at) / Fold change /veh VCAN (11757783_s_at) / RFU DDX43 (11728927_at) / Fold change /veh DDX43 (11728927_at) / RFU KRT8 (11758188_x_at) / Fold change /veh KRT8 (11758188_x_at) / RFU NKD1 (11759106_at) / Fold change /veh NKD1 (11759106_at) / RFU SRD5A1 (11742802_a_at) / Fold change /veh SRD5A1 (11742802_a_at) / RFU TPSAB1 /// TPSB2 (11721975_s_at) / Fold change /veh TPSAB1 /// TPSB2 (11721975_s_at) / RFU GSTM3 (11746129_a_at) / Fold change /veh GSTM3 (11746129_a_at) / RFU IL23R (11737362_x_at) / Fold change /veh IL23R (11737362_x_at) / RFU TMEM51 (11727254_a_at) / Fold change /veh TMEM51 (11727254_a_at) / RFU PIWIL2 (11732686_x_at) / Fold change /veh PIWIL2 (11732686_x_at) / RFU ORM1 (11744905_x_at) / Fold change /veh ORM1 (11744905_x_at) / RFU CCDC152 (11743942_at) / Fold change /veh CCDC152 (11743942_at) / RFU ECM1 (11717891_a_at) / Fold change /veh ECM1 (11717891_a_at) / RFU IL23R (11748794_a_at) / Fold change /veh IL23R (11748794_a_at) / RFU TNFAIP8L3 (11732012_x_at) / Fold change /veh TNFAIP8L3 (11732012_x_at) / RFU MBOAT4 (11741988_at) / Fold change /veh MBOAT4 (11741988_at) / RFU 11764193_at / Fold change /veh 11764193_at / RFU TMEM53 (11763286_at) / Fold change /veh TMEM53 (11763286_at) / RFU MAGEB2 (11727129_at) / Fold change /veh MAGEB2 (11727129_at) / RFU TMEM200A (11744735_a_at) / Fold change /veh TMEM200A (11744735_a_at) / RFU CCDC152 (11751479_a_at) / Fold change /veh CCDC152 (11751479_a_at) / RFU FAM211A (11726209_a_at) / Fold change /veh FAM211A (11726209_a_at) / RFU RGS16 (11746705_a_at) / Fold change /veh RGS16 (11746705_a_at) / RFU VCAN (11755009_s_at) / Fold change /veh VCAN (11755009_s_at) / RFU RHOB (11743442_s_at) / Fold change /veh RHOB (11743442_s_at) / RFU RGS16 (11720943_a_at) / Fold change /veh RGS16 (11720943_a_at) / RFU RGS16 (11720944_at) / Fold change /veh RGS16 (11720944_at) / RFU, VPS4B / Fold change vs veh, VPS4B / RFU, CREB1 / Fold change vs veh, CREB1 / RFU, DNAJC13 / Fold change vs veh, DNAJC13 / RFU, GNAQ / Fold change vs veh, GNAQ / RFU, CDK5R1 / Fold change vs veh, CDK5R1 / RFU, ZRANB3 / Fold change vs veh, ZRANB3 / RFU, CUL4A / Fold change vs veh, CUL4A / RFU, CCNY / Fold change vs veh, CCNY / RFU, UFL1 / Fold change vs veh, UFL1 / RFU, COG3 / Fold change vs veh, COG3 / RFU, DIAPH2 / Fold change vs veh, DIAPH2 / RFU, SKA2 / Fold change vs veh, SKA2 / RFU, AFF3 / Fold change vs veh, AFF3 / RFU, LMF1 / Fold change vs veh, LMF1 / RFU, IPO11 / Fold change vs veh, IPO11 / RFU, DFFB / Fold change vs veh, DFFB / RFU, FOXP1 / Fold change vs veh, FOXP1 / RFU, CARD8 / Fold change vs veh, CARD8 / RFU, STRN3 / Fold change vs veh, STRN3 / RFU, ADK / Fold change vs veh, ADK / RFU, RASSF2 / Fold change vs veh, RASSF2 / RFU, WIPF1 / Fold change vs veh, WIPF1 / RFU, LARP1B / Fold change vs veh, LARP1B / RFU, RASA1 / Fold change vs veh, RASA1 / RFU, RB1 / Fold change vs veh, RB1 / RFU, PPFIA1 / Fold change vs veh, PPFIA1 / RFU, MAT2A / Fold change vs veh, MAT2A / RFU, CCT5 / Fold change vs veh, CCT5 / RFU, WDR92 / Fold change vs veh, WDR92 / RFU, CUX1 / Fold change vs veh, CUX1 / RFU, TTC7A / Fold change vs veh, TTC7A / RFU, TMEM135 / Fold change vs veh, TMEM135 / RFU, DEPTOR / Fold change vs veh, DEPTOR / RFU, CPM / Fold change vs veh, CPM / RFU, DNAJB6 / Fold change vs veh, DNAJB6 / RFU, CACNA2D3 / Fold change vs veh, CACNA2D3 / RFU, DTX4 / Fold change vs veh, DTX4 / RFU, TFCP2 / Fold change vs veh, TFCP2 / RFU, GMCL1 /// GMCL1P1 / Fold change vs veh, GMCL1 /// GMCL1P1 / RFU, AEBP2 / Fold change vs veh, AEBP2 / RFU, SNHG1 /// SNORD22 /// SNORD25 /// SNORD26 /// SNORD27 /// SNORD28 /// SNORD29 /// SNORD31 / Fold change vs veh, SNHG1 /// SNORD22 /// SNORD25 /// SNORD26 /// SNORD27 /// SNORD28 /// SNORD29 /// SNORD31 / Fold change (Aza/veh), C12orf56 (ProbeSet 11735607_a_at) / Fold change (ACY-1035/veh), C12orf56 (ProbeSet 11735607_a_at) / Fold change (Aza/veh), FGFR1OP (ProbeSet 11751329_s_at) / Fold change (ACY-1035/veh), FGFR1OP (ProbeSet 11751329_s_at) / Fold change (Aza/veh), VPS36 (ProbeSet 11739960_a_at) / Fold change (ACY-1035/veh), VPS36 (ProbeSet 11739960_a_at) / RFU SYPL1 (11715823_x_at) / Fold change /veh SYPL1 (11715823_x_at) / RFU IGFBP7 (11715501_s_at) / Fold change /veh IGFBP7 (11715501_s_at) / RFU REEP3 (11722064_at) / Fold change /veh REEP3 (11722064_at) / RFU IGLL1 (11728026_x_at) / Fold change /veh IGLL1 (11728026_x_at): dose or concentration left out as unconfirmed", "settings": "ProbeSet 11739106_a_at; LIST B"}
{"smiles": "Nc1ccc(-c2cccs2)cc1NC(=O)c1ccc2c(c1)cc(C1CC1)n2CCN1CCOCC1", "note": "[ACY-1035]", "values": [{"measurement": "RFU, TMEM33", "result": 263.53, "unit": "RFU"}]}
